Tested on: HBsAg
Assay: HepG2.2.15 cells primary screen assay: HBsAg assay (CLIA of secreted HBsAg)
Format: cell-based, HBV
Settings: Hepatitis B virus
Protocol: Example 23: HepG2.2.15 Cells Primary Screen Assay
HepG2.2.15 cells (Acs et al. Proc Natl Acad Sci USA, 84, (1987), 4641-4), a constitutively HBV-expressing cell line were cultured in DMEM+Glutamax-I medium (Invitrogen, Carlsbad, Calif., USA), supplemented with 10% fetal bovine serum (Invitrogen) and G418 (Invitrogen) at a final concentration of 200 mg/L and maintained in 5% CO2 at 37° C.
HepG2.2.15 cells were seeded in duplicate into white, 96-well plates at 1.5×10^4 cells/well. The cells were treated with a three-fold serial dilution series of the compounds in DMSO. The final DMSO concentration in all wells was 1% and DMSO was used as no drug control.
The HBsAg chemiluminescence immunoassay (CLIA) kit (Autobio Diagnostics Co., Zhengzhou, China, Catalog number: CL0310-2) was used to measure the levels of secreted HBV antigens semi-quantitatively. For the detection 50 μL/well culture supernatant was used and HBsAg was quantified using HBsAg chemiluminescence immunoassay (CLIA) kit (Autobio Diagnostics Co., Zhengzhou, China, Catalog number: CL0310-2), 50 μL of the supernatant was transferred to the CLIA assay plate and 50 μL of enzyme conjugate reagent was added into each well. The plates were sealed and gently agitated for 1 hour at room temperature. The supernatant-enzyme-mixture was discarded and wells were washed 6 times with 300 μL of PBS. The residual liquid was removed by plating the CLIA plate […] on absorbent tissue paper. 25 μL of substrates A and B were added to each well. Luminance was measured using a luminometer (Mithras LB 940 Multimode Microplate Reader) after 10 minutes incubation. Dose-response curves were generated and the IC50 value was extrapolated by using the E-WorkBook Suite (ID Business Solutions Ltd., Guildford, UK). The IC50 was defined as the compound concentration (or conditioned media log dilution) at which HBsAg secretion was reduced by 50% compared to the no drug control.
The compounds of the present invention were tested for their capacity to inhibit HBsAg as described herein.

Row | Structure (SMILES) | IC50 [nM]
1 | COC(=O)C1=C(CN2CCN(CC[C@@H](NCCCCCCOc3cc(N4CCc5nc(-c6ncccn6)ncc5C4C)cc(F)c3F)C(=O)O)CC2)NC(c2nccs2)=N[C@H]1c1ccc(F)cc1Cl (stereo partly drawn) [Example 21, (2R)-4-[4-[[(4R)-4-(2-chloro-4-fluoro-phenyl)-5-methoxycarbonyl-2-thiazol-2-yl-1,4-dihydropyrimidin-6-yl]methyl]piperazin-1-yl]-2-[6-[2,3-difluoro-5-(5-methyl-2-pyrimidin-2-yl-7,8-dihydro-5H-pyrido[4,3-d]pyrimidin-6-yl)phenoxy]hexylamino]butanoic Acid] | 582
2 | CCOC(=O)C1=C(CN2CCN3C(=O)N(CC(C)(C)C(=O)NCCCCCCOc4cc5c(cc4OC)-c4cc(=O)c(C(=O)O)cn4C(C(C)(C)C)C5)C[C@@H]3C2)NC(c2nccs2)=N[C@H]1c1cccc(F)c1Cl (stereo partly drawn) [Example 15, 9-[6-[[3-[(8aS)-7-[[(4R)-4-(2-chloro-3-fluoro-phenyl)-5-ethoxycarbonyl-2-thiazol-2-yl-1,4-dihydropyrimidin-6-yl]methyl]-3-oxo-5,6,8,8a-tetrahydro-1H-imidazo[1,5-a]pyrazin-2-yl]-2,2-dimethyl-propanoyl]amino]hexoxy]-6-tert-butyl-10-methoxy-2-oxo-6,7-dihydrobenzo[a]quinolizine-3-carboxylic Acid] | 41
3 | COC(=O)C1=C(CN2CCN(CCOCCOCCOc3cc4c(cc3OC)-c3cc(=O)c(C(=O)O)cn3C(C(C)(C)C)C4)C(C(=O)O)C2)NC(c2nccs2)=N[C@H]1c1ccc(F)cc1Cl (stereo partly drawn) [Example 11, 6-tert-butyl-9-[2-[2-[2-[2-carboxy-4-[[(4R)-4-(2-chloro-4-fluoro-phenyl)-5-methoxycarbonyl-2-thiazol-2-yl-1,4-dihydropyrimidin-6-yl]methyl]piperazin-1-yl]ethoxy]ethoxy]ethoxy]-10-methoxy-2-oxo-6,7-dihydrobenzo[a]quinolizine-3-carboxylic Acid] | 6340
4 | COC(=O)C1=C(CN2CCN(CCCCCCOc3cc4c(cc3OC)-c3cc(=O)c(C(=O)O)cn3C(C(C)(C)C)C4)CC2)NC(c2nccs2)=N[C@H]1c1ccc(F)cc1Cl (stereo partly drawn) [Example 1, 6-tert-butyl-9-[6-[4-[[(4R)-4-(2-chloro-4-fluoro-phenyl)-5-methoxycarbonyl-2-thiazol-2-yl-1,4-dihydropyrimidin-6-yl]methyl]piperazin-1-yl]hexoxy]-10-methoxy-2-oxo-6,7-dihydrobenzo[a]quinolizine-3-carboxylic Acid] | 41
5 | CCOC(=O)C1=C(COCCCCCCOc2cc3c(cc2OC)-c2cc(=O)c(C(=O)O)cn2C(C(C)(C)C)C3)NC(c2nccs2)=NC1c1ccc(F)cc1Cl (stereo not shown) [Example 14, 6-tert-butyl-9-[6-[[4-(2-chloro-4-fluoro-phenyl)-5-ethoxycarbonyl-2-thiazol-2-yl-1,4-dihydropyrimidin-6-yl]methoxy]hexoxy]-10-methoxy-2-oxo-6,7-dihydrobenzo[a]quinolizine-3-carboxylic Acid] | 96
6 | COC(=O)C1=C(CN2CCOC[C@H]2C(=O)NCCCCCCOc2cc(N3CCc4nc(-c5ncccn5)ncc4C3C)cc(F)c2F)NC(c2nccs2)=N[C@H]1c1ccc(F)cc1Cl (stereo partly drawn) [Example 18, methyl (4R)-4-(2-chloro-4-fluoro-phenyl)-6-[[(3S)-3-[6-[2,3-difluoro-5-(5-methyl-2-pyrimidin-2-yl-7,8-dihydro-5H-pyrido[4,3-d]pyrimidin-6-yl)phenoxy]hexylcarbamoyl]morpholin-4-yl]methyl]-2-thiazol-2-yl-1,4-dihydropyrimidine-5-carboxylate] | 912
7 | COC(=O)C1=C(CN2CCOC[C@H]2C(=O)NCCCCCCOc2cc3c(cc2OC)-c2cc(=O)c(C(=O)O)cn2C(C(C)(C)C)C3)NC(c2nccs2)=N[C@H]1c1ccc(F)cc1Cl (stereo partly drawn) [Example 13, 6-tert-butyl-9-[6-[[(3S)-4-[[(4R)-4-(2-chloro-4-fluoro-phenyl)-5-methoxycarbonyl-2-thiazol-2-yl-1,4-dihydropyrimidin-6-yl]methyl]morpholine-3-carbonyl]amino]hexoxy]-10-methoxy-2-oxo-6,7-dihydrobenzo[a]quinolizine-3-carboxylic Acid] | 85
